Measured values reported in patent US20260306463A1, “SIK INHIBITORS TO TREAT CHRONIC KIDNEY DISEASE” (The General Hospital Corporation, priority 2023, published 2026).
Entries after “also recorded” stand apart in the source; their conditions may differ. Read-outs that look alike come from different tables or passages of the source.

How the values were obtained:
[1] = test system: mice with adenine-induced chronic kidney disease; experiment: adenine diet-induced CKD in mice, 6 weeks: body weight, renal function, mineral metabolism, histology; assay type: in vivo, mouse (female CD1)
Experimental: FIGS. 1A-1E. […] (A) Study design: Female CD1 mice (n=8/group) were treated with control or 0.2% adenine diet starting at 6 weeks of age along with vehicle or SK-124 (40 mg/kg) treatment by oral gavage once daily. Bottom: body weight of mice in the indicated treatment groups. […] (B, C) After 6 weeks of treatment, the indicated analytes were measured in fasting serum or urine. […] (D) H+E-stained kidney sections were assessed on a blinded basis by a pathologist for tubulointerstitial damage. (E) Whole kidney RNA from the indicated groups was analyzed by RT-qPCR for the indicated proximal tubule marker gene. For all panels in all figures, 1-way ANOVA was performed with Dunnett's posthoc analysis to analyze differences between treatment groups, p values less than 0.05 are shown in graph.
(§1) 7-week-old female CD1 mice were obtained from Charles River Laboratories (Wilmington, MA) and were fed on 0.2% adenine containing diet (TD.130900; 0.2% Adenine, 0.9% Phosphate, 0.5% Calcium; Envigo) or control diet (TD. 96348) for 6 or 8 weeks to induce chronic kidney disease (CKD). Mice were oral gavaged with 40 mg/kg SK-124, or intraperitonially injected with 80 μg/kg PTH, or treated with vehicle 5 days a week for the duration of the special diet.
(§2) For studies with Ubiquitin-Cre^ERt2; Sik2^ff; Sik3^ff mice (JAX #007001 for Ubiquitin-Cre^ERt2: RRID:MGL:5905012 for Sik2 foxed mice; and Sik3^tmla(EUCOMM)Hmgu mice (RRID:MGI:5085429) bred to PGK1 FLPo mice (JAX #011065) in order to generate Sik3 foxed mice), tamoxifen was injected (1 mg, IP, Q48 hours, 3 injections total) in all animals including Cre-negative control littermates housed in cages with Pure-o′Cel bedding at 5 weeks of age. Mice were then fed on 0.2% adenine diet from 6 weeks to 9 weeks of age. Mice were fasted for 6 hours and treated with SK-124 and PTH 4 hours and 2 hours before the sacrifice. Blood and spot urine samples were collected by cheek pouch bleeding and by pipetting urine collected on hydrophobic sand (Labsand; Braintree, MA). Kidneys were immediately snap-frozen in liquid nitrogen for TRIzol (Life Technologies)-Chloroform (Fischer Scientific) based RNA isolation or protein isolation, or fixed in 10% formalin at 4C for 24 hrs for histology. All serum and urine measurements were performed using commercial bioassay detection reagents listed in Table 1, following the manufacturers' instructions. Urine protein levels were measured by Bradford assay and normalized to urine creatinine.

[2] = test system: mice with adenine diet-induced chronic kidney disease; experiment: 8 week adenine diet CKD study, SK-124 versus once daily PTH injections; assay type: in vivo, mouse (female CD1); settings: 8 weeks
Experimental: FIGS. 4A-4D. […] (A) Study design: Female CD1 mice (n=8/group) were treated with control or 0.2% adenine diet starting at […] of age along with vehicle, PTH (80 mcg/kg/d, IP injections) or SK-124 (40 mg/kg) treatment by oral gavage once daily. Mice were treated for 8 weeks. (B, C) After 8 weeks of treatment, the indicated serum analyte was measured. (D) Whole kidney RNA from the indicated groups was analyzed by RT-qPCR for the indicated fibrosis marker gene.
as §1, §2
cDNA was prepared using Primescript RT kit (Takara Inc), with 750 ng RNA per reaction. RT-qPCR was performed by using PerfeCa® SYBR® Green FAstMix® ROX (Quanta bio) in the StepOnePlus™ Real-time PCR System (Applied Biosystems). Hmbs was used as a control housekeeping gene for mouse samples, and B-Actin was used for organoids, relative expression was calculated (2^-deltaCT method) and compared to the mean of control group if necessary. Primers used for RT-qPCR are listed in Table 2 (mouse primers) and Table 3 (human primers).

[3] = test system: whole kidney transcriptome; experiment: bulk RNA-sequencing of whole kidney, adenine CKD mice; assay type: in vivo, mouse; settings: bulk RNA-seq
Experimental: FIGS. 6A-6F. The effects of SK-124 treatment at the transcriptomic level in adenine-induced mouse chronic kidney disease. RNA-seq was performed on whole kidney RNA samples (n=7/group) from FIG. 1. Volcano plot show gene regulated (>2-fold change, p(adj)<0.05) by CKD (versus control diet, A) or in CKD by SK-124 (versus vehicle control, B). In Volcano plot, representative fibrosis markers (Col3a1, Vim, Serpinel) and proximal tubule integrity (Lrp2. Atplai, and Hnf4a) are shown. Scatterplot (C) and heatmap (D) showing integration of individual RNA-seq comparisons. […] (E) Single cell RNA-sequencing was performed on dissociated kidneys from adenine diet fed mice treated with vehicle or SK-124 (n=4/group). […] (F) Relative cellularity of each annotated cluster is shown in pie chart format for adenine+vehicle (CKD-Veh) or adenine+SK-124 (CKD-SK-124) mice.
(§3) Isolated RNA samples from the mouse adenine diet study and human kidney organoid experiment were submitted to Novogene and bulk-RNA sequencing on NovaSeq X Plus Ilumina Novoseq Platform. Sequencing reads were mapped to the mouse reference genome (mm10/GRCm38) or human reference genome (GRCh38/hg38) using Salmon and differential gene expression analysis was performed using DESeq2.

[4] = test system: mouse CKD kidneys and human kidney organoids; experiment: overlap of injury-regulated genes rescued by SK-124 in mouse adenine diet and human cisplatin organoid studies; settings: Venn overlap, both CKD models
Experimental: FIGS. 13A-13E. Transcriptomic effects of SK-124 in cisplatin-induced human kidney organoid model. RNA-seq was performed on kidney organoid RNA samples (n=4/group) from FIG. 8. Volcano plot show gene regulated (>2-fold change, p(adj)<0.05) by cisplatin (versus vehicle, A) or within cisplatin-treated organoids by SK-124 (versus DMSO control, B). In Volcano plot, representative fibrosis/injury markers (Col8a1, Fni, Serpinel) and proximal tubule integrity (Lrp2 and Hnf4a) are shown. Scatterplot (C) and heatmap (D) showing integration of individual RNA-seq comparisons.
as §3

[5] = test system: SIK2/SIK3; settings: reference to WO 2022/031928, Sato et al., Yoon et al., cited from earlier work
[6] = test system: bone and kidney; settings: bone and kidney (ref. 7); cited from earlier work
[7] = 0.2% adenine diet, 6 weeks, SK-124 40 mg/kg oral
[8] = adenine vs control diet, or SK-124 vs vehicle in CKD mice

Question: With CCc1nnc(-c2c(OC)cc(-c3cnc4cc(-c5cnn(C)c5)ccn34)cc2OC)o1 [SK-124, 2-[2,6-Dimethoxy-4-[7-(1-methylpyrazol-4-yl)imidazo[1,2-a]pyridin-3-yl]phenyl]-5-ethyl-1,3,4-oxadiazole] as the compound, how does the BUN [1, 7] read?
Answer: Its BUN is “reduced”.

Question: What about the creatinine [1, 7] of the same compound?
Answer: The creatinine was “reduced”.

Question: What about the “cystatin C” value [1, 7] of the same compound?
Answer: The value was “reduced”.

Question: What about the hyperphosphatemia [1, 7] of the same compound?
Answer: Its hyperphosphatemia is “improved”.

Question: And the “increased FGF-23” value [1, 7]?
Answer: The value was “improved”.

Question: And the proteinuria [1, 7]?
Answer: Its proteinuria is “reduced”.

Question: And the secondary hyperparathyroidism [1, 7]?
Answer: Its secondary hyperparathyroidism is “improved”.

Question: What about the body weight ([1]; 0.2% adenine diet, 6 weeks, SK-124 40 mg/kg oral gavage once daily, 40 mg/kg) of the same compound?
Answer: The body weight was “CKD-induced weight loss is prevented; also recorded: improved body weight”.

Question: And the “renal (kidney) function and overall health” value ([1]; 0.2% adenine diet, 6 weeks, SK-124 40 mg/kg oral, 40 mg/kg)?
Answer: The value was “improves renal function; also recorded: dramatic improvements in renal function and overall health; also recorded: restores kidney function”.

Question: And the tubule-interstitial damage ([1]; H+E-stained kidney sections, blinded pathologist)?
Answer: Its tubule-interstitial damage is “reduced tubule-interstitial damage”.

Question: What about the “CKD-induced changes of analytes in fasting serum or urine” value ([1]; after 6 weeks of treatment, SK-124 40 mg/kg oral) of the same compound?
Answer: Its value is “All CKD-induced changes were prevented”.

Question: What about the CKD-MBD markers ([2]; SK-124 40 mg/kg oral gavage once daily, or PTH 80 mcg/kg/d IP) of the same compound?
Answer: The CKD-MBD markers was “reduced CKD-MBD markers”.

Question: And the kidney function ([2]; SK-124 40 mg/kg oral gavage once daily, or PTH 80 mcg/kg/d IP, 40 mg/kg)?
Answer: The kidney function was “improved kidney function”.

Question: And the “fibrosis marker gene expression” value ([2]; whole kidney RT-qPCR, SK-124 40 mg/kg oral, or PTH 80 mcg/kg/d IP)?
Answer: Its value is “reduced fibrosis marker gene expression”.

Question: And the “patterns of dysregulated gene expression in CKD” value ([3]; scatterplot and heat map, SK-124 vs vehicle)?
Answer: Its value is “conversely regulated; also recorded: reversed”.

Question: And the “injury markers (Col3a1, Vim, Serpine1)” value [3, 8]?
Answer: The value was “suppressed”.

Question: What about the “markers of intact proximal epithelial cells (Lrp2, Atpla1, Hnf4a) / epithelial cell integrity” value [3, 8] of the same compound?
Answer: The value was “preserved expression”.

Question: What about the “conserved genes induced with injury and reduced by SK-124” value [4] of the same compound?
Answer: The value was 419 genes.

Question: And the “conserved genes suppressed by injury and restored by SK-124” value [4]?
Answer: Its value is 373 genes.

Question: And the SIK isoform selectivity [5]?
Answer: The SIK isoform selectivity was “specific SIK2/SIK3 inhibitor; also recorded: SIK2/SIK3-selective inhibitor”.

Question: And the SIK isoform selectivity ([5]; listed as SIK-124)?
Answer: Its SIK isoform selectivity is “selective SIK2/SIK3 inhibitor”.

Question: What about the “PTH-like effects in vivo” value [6] of the same compound?
Answer: Its value is “PTH-like effects in vivo in bone and kidney”.
